Assay results reported in ChEMBL document CHEMBL6115053, “Optimization and Characterization of N-Acetamide Indoles as Antimalarials That Target PfATP4” (J Med Chem, 2025).
Converted amounts (≈) assume the structure as drawn. The source made the active and inactive calls. The rule behind the calls is not given here.

Columns and labels:
Plasmodium falciparum [1] = assay: Antiplasmodial activity against multidrug resistant Plasmodium falciparum 7G8 incubated for 48 hrs by SYBR staining based fluorometer assay; assay type: functional, organism-based; settings: 7G8, 48 h
Plasmodium knowlesi = assay: Antiplasmodial activity against wild type Plasmodium knowlesi YH1 incubated for 30 hrs by SYBR staining based flow cytometry assay; assay type: functional, organism-based; settings: YH1, 30 h
Plasmodium falciparum [2] = assay: Antiplasmodial activity against Plasmodium falciparum 3D7 infected in RBC assessed as reduction in deoxythymidine triphosphate level at 5 nM incubated for 5 hrs by LC-MS analysis; assay type: functional, organism-based
[3] = Aqueous solubility in PBS buffer at pH 7.4; assay type: physicochemical
Plasmodium falciparum [4] = assay: Antiplasmodial activity against wild type Plasmodium falciparum 3D7 incubated for 48 hrs; assay type: functional, organism-based; settings: 3D7, 48 h
[5] = Metabolic stability in human liver microsome assessed as intrinsic clearance; assay type: ADME; settings: microsomes
Plasmodium falciparum [6] = assay: Antiplasmodial activity against asexual Plasmodium falciparum 3D7 infected in human […] cells assessed as reduction in parasite growth measured for 72 hrs by LDH assay; assay type: functional, organism-based; settings: 3D7, 72 h
HepG2 = assay: Cytotoxicity against human HepG2 cells assessed as inhibition of cell growth incubated for 48 hrs by celltiterglo assay; assay type: toxicity, cell-based; settings: hepg2, 48 h
Plasmodium falciparum [7] = assay: Antiplasmodial activity against Plasmodium falciparum 3D7 infected in RBC assessed as reduction in nucleotide level at 5 nM incubated for 5 hrs by LC-MS analysis; assay type: functional, organism-based
Plasmodium falciparum [8] = assay: Antimalarial activity against Plasmodium falciparum NF54 infected assessed as inhibition of female gamete formation incubated for 48 hrs by automated bright field microscopic analysis; assay type: functional, organism-based; settings: NF54, 48 h
Plasmodium falciparum [9] = assay: Antiplasmodial activity against Plasmodium falciparum 3D7 infected in RBC assessed as reduction in deoxycytidine monophosphate level at 5 nM incubated for 5 hrs by LC-MS analysis; assay type: functional, organism-based
Plasmodium falciparum [10] = assay: Antiplasmodial activity against multi-drug resistant Plasmodium falciparum Dd2; assay type: functional, organism-based
[11] = Metabolic stability in rat hepatocyte […] assessed as intrinsic clearance measured per 10^6 cells; assay type: ADME, cell-based; settings: hepatocytes
Plasmodium falciparum [12] = assay: Antiplasmodial activity against Plasmodium falciparum 3D7 infected in RBC assessed as reduction in pyrimidine-deoxyribonucleotides level at 5 nM incubated for 5 hrs by LC-MS analysis; assay type: functional, organism-based
Plasmodium falciparum [13] = assay: Antiplasmodial activity against Plasmodium falciparum 3D7 infected in RBC assessed as reduction in deoxythymidine diphosphate level at 5 nM incubated for 5 hrs by LC-MS analysis; assay type: functional, organism-based
Plasmodium falciparum [14] = assay: Antiplasmodial activity against multidrug resistant Plasmodium falciparum Cam3.1 incubated for 48 hrs by SYBR staining based fluorometer assay; assay type: functional, organism-based; settings: Cam3.1, 48 h
[15] = Metabolic stability in mouse liver microsome assessed as intrinsic clearance; assay type: ADME; settings: microsomes
Plasmodium falciparum [16] = assay: Antiplasmodial activity against multidrug resistant Plasmodium falciparum W2mef incubated for 48 hrs by SYBR staining based fluorometer assay; assay type: functional, organism-based
[17] = Lipophilicity, logD of compound at pH 7.4 by shake-flask method; assay type: physicochemical; settings: buffer
Plasmodium falciparum [18] = assay: Antimalarial activity against Plasmodium falciparum NF54 infected assessed as inhibition of male gamete formation incubated for 48 hrs by automated bright field microscopic analysis; assay type: functional, organism-based; settings: NF54, 48 h
Plasmodium falciparum [19] = assay: Antiplasmodial activity against N-(2,6-difluorophenyl)-2-(6-(5-methyl-1,3,4-oxadiazol-2-yl)-1H-indol-1-yl)acetamide-resistant Plasmodium falciparum Dd2 harboring plasmodium falciparum ATP4 F156L mutant; assay type: functional, organism-based
Plasmodium falciparum [20] = assay: Antiplasmodial activity against N-(2,6-difluorophenyl)-2-(6-(5-methyl-1,3,4-oxadiazol-2-yl)-1H-indol-1-yl)acetamide-resistant Plasmodium falciparum Dd2 harboring plasmodium falciparum ATP4 D425E mutant; assay type: functional, organism-based
Plasmodium falciparum [21] = assay: Antiplasmodial activity against multidrug-resistant Plasmodium falciparum Dd2 harboring plasmodium falciparum ATP4 I398F/P990R/D1247Y mutant; assay type: functional, organism-based
Plasmodium falciparum [22] = assay: Antiplasmodial activity against Plasmodium falciparum 3D7; assay type: functional, organism-based
Plasmodium falciparum [23] = assay: Antiplasmodial activity against N-(2,6-difluorophenyl)-2-(6-(5-methyl-1,3,4-oxadiazol-2-yl)-1H-indol-1-yl)acetamide-resistant Plasmodium falciparum Dd2 harbouring ATP4 genome with 2.8 fold CNV; assay type: functional, organism-based
Plasmodium falciparum [24] = assay: Antiplasmodial activity against multidrug-resistant Plasmodium falciparum Dd2 harboring plasmodium falciparum ATP4 G358S mutant; assay type: functional, organism-based

**Q.** What does the source list for `COc1cc(NC(=O)Cn2ccc3ccc(-c4nnc(C)o4)cc32)cc(OC)c1OC`?
**A.** EC50 (Plasmodium falciparum [1]): 165 nM; EC50 (Plasmodium knowlesi): 195 nM; Activity (Plasmodium falciparum [2]): inactive; solubility kinetic [3]: 5.1 µM (≈ 2.15 µg/mL); EC50 (Plasmodium falciparum [4]): 73 nM; intrinsic clearance (CLint) [5]: 42 µL/min/mg; EC50 (Plasmodium falciparum [6]): 200 nM; CC50 (HepG2): > 40000 nM; Activity (Plasmodium falciparum [7]): inactive; EC50 (Plasmodium falciparum [8]): 3400 nM; Activity (Plasmodium falciparum [9]): inactive; EC50 (Plasmodium falciparum [10]): 99 nM; intrinsic clearance (CLint) [11]: 8.9 uL/min/10^6 cells; Activity (Plasmodium falciparum [12]): inactive; Activity (Plasmodium falciparum [13]): inactive; EC50 (Plasmodium falciparum [14]): 124 nM; intrinsic clearance (CLint) [15]: 69 µL/min/mg; EC50 (Plasmodium falciparum [16]): 77 nM; logD [17]: 2.7; EC50 (Plasmodium falciparum [18]): 1500 nM

**Q.** Which EC50 (Plasmodium falciparum [4]) does the source give for `O[C@@H](c1cc(C(F)(F)F)nc2c(C(F)(F)F)cccc12)[C@H]1CCCCN1` (racemic) [(S,R)-MEFLOQUINE] here?
**A.** The EC50 was 23 nM.

**Q.** And the EC50 (Plasmodium falciparum [10])?
**A.** The EC50 was 35 nM.

**Q.** And the EC50 (Plasmodium falciparum [14])?
**A.** The EC50 was 9 nM.

**Q.** And the EC50 (Plasmodium falciparum [16])?
**A.** Its EC50 is 64 nM.

**Q.** Which EC50 (Plasmodium falciparum [19]) does the source give for `Cc1nnc(-c2ccc3ccn(CC(=O)Nc4ccc(F)cc4F)c3c2)o1` here?
**A.** Its EC50 is 25 nM.

**Q.** And the EC50 (Plasmodium falciparum [20])?
**A.** Its EC50 is 30 nM.

**Q.** What about the EC50 (Plasmodium falciparum [21]) of the same compound?
**A.** The EC50 was 142 nM.

**Q.** And the EC50 (Plasmodium falciparum [6])?
**A.** Its EC50 is 4250 nM.

**Q.** And the CC50 (HepG2)?
**A.** Its CC50 is greater than 40000 nM.

**Q.** What about the EC50 (Plasmodium falciparum [22]) of the same compound?
**A.** The EC50 was 16 nM.

**Q.** What about the EC50 (Plasmodium falciparum [23]) of the same compound?
**A.** Its EC50 is 30 nM.

**Q.** What about the EC50 (Plasmodium falciparum [24]) of the same compound?
**A.** The EC50 was 28 nM.
